According to PMC8242589, “Cardiac Safety of Kinase Inhibitors – Improving Understanding and Prediction of Liabilities in Drug Discovery Using Human Stem Cell-Derived Models” (Frontiers in Cardiovascular Medicine, 2021):

How the values were obtained:
PI3K p110β = settings: ref [23]–[25] (NVP-BEZ235), [27] (LY 294002), [28] (GDC-0941), [32] (TGX-221), [33] (CAL-101), [35] (CZC24832); read-out: Target IC50 p110β; cited from earlier work
[1] = test system: hSC-CMs (Cor.4U Cardiomyocytes); assay: Apoptosis assay (CellEvent Caspase-3/7 Green, IncuCyte ZOOM kinetics over 24 h); type: cell-based, human; set-up: key to Caspase / Caspase MEAN: % of time-matched vehicle control (green object area); settings: for activity at 0.01 µM / activity at 0.1 µM / activity at 1 µM / activity at 10 µM: Homo sapiens, Cardiomyocyte; for activity at 0.01 µM / activity at 0.1 µM / activity at 1 µM / activity at 10 µM / Caspase: normalized to time-matched vehicle control
Outline: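 Cor.4U cardiomyocytes were cultured 4 days at 5% CO2 and 37 °C, given a 2 h baseline, then treated with compound for 24 h. Caspase-3/7 green nuclear signal was imaged every 2 h, and total green object area per well (μm^2/well) was normalized to the time-matched vehicle control. At least three replicates were run per concentration.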

PI3K p110γ = settings: ref [23]–[25] (NVP-BEZ235), [28] (GDC-0941), [33] (CAL-101), [35] (CZC24832); read-out: Target IC50 p110γ; cited from earlier work
[2] = test system: hSC-CMs (Cor.4U Cardiomyocytes); assay: ATP assay (CellTiter-Glo Luminescent Cell Viability Assay); type: cell-based, human; settings: for viability at 0.01 µM / viability at 0.1 µM / viability at 1 µM / viability at 10 µM: Homo sapiens, Cardiomyocyte; for viability at 0.01 µM / viability at 0.1 µM / viability at 1 µM / viability at 10 µM / ATP: normalized to time-matched DMSO control
Outline: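 Human stem-cell-derived Cor.4U cardiomyocytes (25,000–30,000/well), cultured 4 days at 37 °C, switched to serum-free BMCC medium 12 h before dosing. Cellular ATP quantified by CellTiter-Glo luminescence and normalized to time-matched DMSO controls; at least three replicates per concentration.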

[3] = test system: hSC-CMs (Cor.4U Cardiomyocytes); assay: CardioExcyte 96 impedance and EFP recording (beating rate, base impedance); type: cell-based, human; settings: for activity at 0.01 µM / activity at 0.1 µM / activity at 1 µM / activity at 10 µM: Homo sapiens, Cardiomyocyte; for activity at 0.01 µM / activity at 0.1 µM / activity at 1 µM / activity at 10 µM / BR / Base Imp: vs baseline before drug (taken as 100%)
Outline: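 hSC-CM monolayers (Cor.4U), cultured 4 days at 37 °C, 5% CO2, recorded spontaneously beating; impedance sampled at 1 kHz, EFP at 10 kHz. Beating rate taken as reciprocal of inter-spike interval in EFP. Each test concentration expressed as fractional change versus pre-drug baseline (100%).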

ROCK2 = settings: ref [36] (RKI-1447), [37], [38] (Fasudil), [39]–[43] (Y-27632), [44], [45] (GSK-429286); read-out: Target IC50 ROCK2; cited from earlier work

Q: For `CC(C)(C)NS(=O)(=O)c1cncc(-c2cc(F)c3nc(N)nn3c2)c1` [CZC24832], which IC50 (PI3K p110β) is on record?
A: Its IC50 is 1100 nM.

Q: What about the activity at 0.01 µM ([1]; 2h) of the same compound?
A: Its activity at 0.01 µM is 87%.

Q: What about the activity at 0.01 µM ([1]; 24h) of the same compound?
A: The activity at 0.01 µM was 79%.

Q: What about the activity at 0.1 µM ([1]; 2h) of the same compound?
A: The activity at 0.1 µM was 132%.

Q: What about the activity at 0.1 µM ([1]; 24h) of the same compound?
A: The activity at 0.1 µM was 88%.

Q: What about the activity at 1 µM ([1]; 2h) of the same compound?
A: Its activity at 1 µM is 109%.

Q: What about the activity at 1 µM ([1]; 24h) of the same compound?
A: Its activity at 1 µM is 68%.

Q: What about the activity at 10 µM ([1]; 2h) of the same compound?
A: Its activity at 10 µM is 102%.

Q: And the activity at 10 µM ([1]; 24h)?
A: Its activity at 10 µM is 76%.

Q: What about the “Apoptosis (caspase-3/7 activation), result in words” value ([1]; hSC-CMs, monitored over 24 h) of the same compound?
A: The value was “no effect”.

Q: And the IC50 (PI3K p110γ)?
A: Its IC50 is 27 nM.

Q: What about the viability at 0.01 µM ([2]; 2h) of the same compound?
A: Its viability at 0.01 µM is 100%.

Q: And the viability at 0.01 µM ([2]; 24h)?
A: Its viability at 0.01 µM is 100%.

Q: What about the viability at 0.1 µM ([2]; 2h) of the same compound?
A: The viability at 0.1 µM was 99%.

Q: And the viability at 0.1 µM ([2]; 24h)?
A: Its viability at 0.1 µM is 97%.

Q: What about the viability at 1 µM ([2]; 2h) of the same compound?
A: The viability at 1 µM was 99%.

Q: What about the viability at 1 µM ([2]; 24h) of the same compound?
A: The viability at 1 µM was 97%.

Q: What about the viability at 10 µM ([2]; 2h) of the same compound?
A: The viability at 10 µM was 101%.

Q: And the viability at 10 µM ([2]; 24h)?
A: Its viability at 10 µM is 100%.

Q: What about the “Effect on ATP level, in words” value ([2]; hSC-CMs, up to the highest test concentrations) of the same compound?
A: The value was “did not have any effect”.

Q: What about the activity at 0.01 µM ([3]; 2h, read-out: BR) of the same compound?
A: Its activity at 0.01 µM is 100%.

Q: What about the activity at 0.01 µM ([3]; 2h, read-out: Base Imp) of the same compound?
A: Its activity at 0.01 µM is 98%.

Q: And the activity at 0.01 µM ([3]; 24h, read-out: BR)?
A: Its activity at 0.01 µM is 96%.

Q: And the activity at 0.01 µM ([3]; 24h, read-out: Base Imp)?
A: Its activity at 0.01 µM is 99%.

Q: What about the activity at 0.1 µM ([3]; 2h, read-out: BR) of the same compound?
A: Its activity at 0.1 µM is 95%.

Q: And the activity at 0.1 µM ([3]; 2h, read-out: Base Imp)?
A: The activity at 0.1 µM was 98%.

Q: And the activity at 0.1 µM ([3]; 24h, read-out: BR)?
A: The activity at 0.1 µM was 98%.

Q: And the activity at 0.1 µM ([3]; 24h, read-out: Base Imp)?
A: Its activity at 0.1 µM is 97%.

Q: What about the activity at 1 µM ([3]; 2h, read-out: BR) of the same compound?
A: Its activity at 1 µM is 97%.

Q: And the activity at 1 µM ([3]; 2h, read-out: Base Imp)?
A: Its activity at 1 µM is 96%.

Q: And the activity at 1 µM ([3]; 24h, read-out: BR)?
A: Its activity at 1 µM is 98%.

Q: And the activity at 1 µM ([3]; 24h, read-out: Base Imp)?
A: Its activity at 1 µM is 93%.

Q: And the activity at 10 µM ([3]; 2h, read-out: BR)?
A: The activity at 10 µM was 94%.

Q: And the activity at 10 µM ([3]; 2h, read-out: Base Imp)?
A: Its activity at 10 µM is 93%.

Q: What about the activity at 10 µM ([3]; 24h, read-out: BR) of the same compound?
A: The activity at 10 µM was 97%.

Q: What about the activity at 10 µM ([3]; 24h, read-out: Base Imp) of the same compound?
A: Its activity at 10 µM is 89%.

Q: What about the “Change in the hSC-CMs parameters (surface plots: beating rate, base impedance, ATP)” value ([3]; hSC-CMs, 2 and 24 h) of the same compound?
A: Its value is “below 20%”.

Q: And the “Effect on hSC-CMs function (base impedance and beating rate), in words” value ([3]; hSC-CMs, 2 and 24 h)?
A: The value was “did not have any effect”.

Q: With `C[C@@H](N)C1CCC(C(=O)Nc2ccncc2)CC1.Cl.Cl` (stereo partly drawn) [Y-27632] as the compound, how does the Caspase ([1]; 0.3 µM, 2h) read?
A: Its Caspase is 119.

Q: And the Caspase ([1]; 0.3 µM, 24h)?
A: The Caspase was 94.

Q: And the Caspase ([1]; 3 µM, 2h)?
A: The Caspase was 163.

Q: What about the Caspase ([1]; 3 µM, 24h) of the same compound?
A: The Caspase was 129.

Q: And the Caspase ([1]; 30 µM, 2h)?
A: Its Caspase is 104.

Q: And the Caspase ([1]; 30 µM, 24h)?
A: Its Caspase is 163.

Q: What about the Caspase ([1]; 300 µM, 2h) of the same compound?
A: The Caspase was 96.

Q: And the Caspase ([1]; 300 µM, 24h)?
A: The Caspase was 306.

Q: What about the “Time of notable raise in the caspase-3/7 activity” value ([1]; highest test concentrations only) of the same compound?
A: The value was 12 to 18 h.

Q: What about the “Apoptosis (caspase-3/7 activity) at the highest test concentration, in words” value ([1]; top / highest test concentration, over 24 h) of the same compound?
A: The value was “slow initial phase followed by a notable raise in the caspase-3/7 activity”.

Q: And the ATP ([2]; 0.3 µM, 2h)?
A: Its ATP is 105.

Q: What about the ATP ([2]; 0.3 µM, 24h) of the same compound?
A: Its ATP is 100.

Q: And the ATP ([2]; 3 µM, 2h)?
A: The ATP was 102.

Q: What about the ATP ([2]; 3 µM, 24h) of the same compound?
A: The ATP was 101.

Q: And the ATP ([2]; 30 µM, 2h)?
A: Its ATP is 103.

Q: What about the ATP ([2]; 30 µM, 24h) of the same compound?
A: The ATP was 103.

Q: What about the ATP ([2]; 300 µM, 2h) of the same compound?
A: Its ATP is 109.

Q: And the ATP ([2]; 300 µM, 24h)?
A: Its ATP is 104.

Q: And the IC50 (ROCK2)?
A: Its IC50 is 89 nM.

Q: And the “Effect on beating rate, in words” value [3]?
A: The value was “reduced cardiomyocyte beating at both 2 h and 24 h time points”.

Q: And the BR ([3]; 0.3 µM, 2h)?
A: Its BR is 101.

Q: What about the “Base Imp” value ([3]; 0.3 µM, 2h) of the same compound?
A: Its value is 89.

Q: And the BR ([3]; 0.3 µM, 24h)?
A: The BR was 95.

Q: And the “Base Imp” value ([3]; 0.3 µM, 24h)?
A: The value was 88.

Q: And the BR ([3]; 3 µM, 2h)?
A: The BR was 99.

Q: What about the “Base Imp” value ([3]; 3 µM, 2h) of the same compound?
A: Its value is 89.

Q: And the BR ([3]; 3 µM, 24h)?
A: The BR was 100.

Q: And the “Base Imp” value ([3]; 3 µM, 24h)?
A: Its value is 85.

Q: And the BR ([3]; 30 µM, 2h)?
A: Its BR is 99.

Q: And the “Base Imp” value ([3]; 30 µM, 2h)?
A: Its value is 80.

Q: And the BR ([3]; 30 µM, 24h)?
A: Its BR is 101.

Q: And the “Base Imp” value ([3]; 30 µM, 24h)?
A: The value was 67.

Q: What about the BR ([3]; 300 µM, 2h) of the same compound?
A: Its BR is 76.

Q: What about the “Base Imp” value ([3]; 300 µM, 2h) of the same compound?
A: The value was 61.

Q: And the BR ([3]; 300 µM, 24h)?
A: Its BR is 68.

Q: What about the “Base Imp” value ([3]; 300 µM, 24h) of the same compound?
A: Its value is 54.

Q: What about the “Secondary beats at 300 uM, MEAN” value ([3]; 300 uM, unlabelled side calculation under the 24h data) of the same compound?
A: The value was 103.939.
